Values quoted from earlier work in publication PMC9851200, “Multiparameter phenotypic screening for endogenous TFEB and TFE3 translocation identifies novel chemical series modulating lysosome function” (Autophagy, 2022).

Assays:
Set-up in all cases: method as in original PKIS2 published data
[1] = target: T1, kinases (KINOMEscan panel) (Homo sapiens, UniProt Q13546); settings: kinase RIPK1; Published KINOMEscan; ref original PKIS2 published data; cited from earlier work
T1 sequence (Q13546 1-671): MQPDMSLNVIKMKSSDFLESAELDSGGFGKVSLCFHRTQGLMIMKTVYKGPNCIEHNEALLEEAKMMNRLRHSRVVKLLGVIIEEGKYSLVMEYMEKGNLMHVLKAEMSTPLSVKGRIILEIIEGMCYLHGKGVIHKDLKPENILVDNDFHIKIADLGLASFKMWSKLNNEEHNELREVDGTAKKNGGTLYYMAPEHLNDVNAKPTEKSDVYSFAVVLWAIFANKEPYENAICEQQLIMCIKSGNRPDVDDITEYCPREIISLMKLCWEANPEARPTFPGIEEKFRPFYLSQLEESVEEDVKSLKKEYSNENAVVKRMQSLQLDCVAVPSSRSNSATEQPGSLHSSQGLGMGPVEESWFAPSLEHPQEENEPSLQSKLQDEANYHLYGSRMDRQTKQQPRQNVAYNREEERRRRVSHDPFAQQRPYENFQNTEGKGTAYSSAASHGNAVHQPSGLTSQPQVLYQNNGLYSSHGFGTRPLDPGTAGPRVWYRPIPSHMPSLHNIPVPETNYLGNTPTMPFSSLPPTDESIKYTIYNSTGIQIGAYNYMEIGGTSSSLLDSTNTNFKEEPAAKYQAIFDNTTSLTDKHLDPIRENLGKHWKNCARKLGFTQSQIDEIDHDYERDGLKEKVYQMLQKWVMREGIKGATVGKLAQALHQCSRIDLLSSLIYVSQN

[2] = target: T2, kinases (KINOMEscan panel) (Homo sapiens, UniProt P35626); settings: GRK3; Published KINOMEscan; ref original PKIS2 published data; cited from earlier work
T2 sequence (P35626 1-688): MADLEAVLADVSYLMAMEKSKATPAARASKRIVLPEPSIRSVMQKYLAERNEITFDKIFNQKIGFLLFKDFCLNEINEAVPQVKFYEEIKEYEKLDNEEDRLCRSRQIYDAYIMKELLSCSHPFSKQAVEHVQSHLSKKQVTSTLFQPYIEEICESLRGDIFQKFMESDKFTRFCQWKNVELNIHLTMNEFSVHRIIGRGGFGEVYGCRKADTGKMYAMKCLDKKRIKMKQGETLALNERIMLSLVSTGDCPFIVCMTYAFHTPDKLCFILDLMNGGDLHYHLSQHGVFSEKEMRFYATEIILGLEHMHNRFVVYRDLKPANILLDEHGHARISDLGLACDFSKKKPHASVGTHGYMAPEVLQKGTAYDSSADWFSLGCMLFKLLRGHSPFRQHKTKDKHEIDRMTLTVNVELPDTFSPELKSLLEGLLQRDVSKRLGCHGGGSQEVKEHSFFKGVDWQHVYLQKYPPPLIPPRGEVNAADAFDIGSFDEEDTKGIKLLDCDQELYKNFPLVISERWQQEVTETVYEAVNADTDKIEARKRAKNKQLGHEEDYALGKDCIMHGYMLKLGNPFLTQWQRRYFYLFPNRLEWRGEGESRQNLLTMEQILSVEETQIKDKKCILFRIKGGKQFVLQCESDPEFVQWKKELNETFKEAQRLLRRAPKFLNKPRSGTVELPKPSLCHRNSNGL

[3] = target: T3, kinases (KINOMEscan panel) (Homo sapiens, UniProt Q9H2K8); settings: kinase TAOK3; Published KINOMEscan; ref original PKIS2 published data; cited from earlier work
T3 sequence (Q9H2K8 1-898): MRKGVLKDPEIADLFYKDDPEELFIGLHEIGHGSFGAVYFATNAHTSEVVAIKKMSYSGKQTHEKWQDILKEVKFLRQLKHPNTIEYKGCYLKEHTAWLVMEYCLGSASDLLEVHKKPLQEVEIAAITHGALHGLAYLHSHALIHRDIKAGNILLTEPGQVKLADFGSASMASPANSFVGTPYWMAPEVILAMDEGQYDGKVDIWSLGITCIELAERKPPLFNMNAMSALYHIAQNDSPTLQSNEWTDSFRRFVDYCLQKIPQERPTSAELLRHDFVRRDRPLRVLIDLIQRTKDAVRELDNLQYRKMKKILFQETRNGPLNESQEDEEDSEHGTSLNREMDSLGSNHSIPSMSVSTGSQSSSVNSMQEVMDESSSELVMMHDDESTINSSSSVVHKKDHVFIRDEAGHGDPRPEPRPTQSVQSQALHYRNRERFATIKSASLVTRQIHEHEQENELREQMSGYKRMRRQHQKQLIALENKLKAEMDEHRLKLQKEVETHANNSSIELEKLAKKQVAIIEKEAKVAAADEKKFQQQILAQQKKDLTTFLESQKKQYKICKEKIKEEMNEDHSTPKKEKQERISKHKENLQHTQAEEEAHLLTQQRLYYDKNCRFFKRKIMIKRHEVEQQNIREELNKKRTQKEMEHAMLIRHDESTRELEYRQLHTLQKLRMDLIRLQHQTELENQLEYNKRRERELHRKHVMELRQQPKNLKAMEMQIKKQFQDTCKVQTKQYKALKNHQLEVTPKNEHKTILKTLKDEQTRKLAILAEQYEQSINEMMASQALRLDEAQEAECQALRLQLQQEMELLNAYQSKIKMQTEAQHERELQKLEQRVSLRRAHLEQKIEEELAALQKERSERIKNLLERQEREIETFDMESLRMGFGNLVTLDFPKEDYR

[4] = target: kinases (KINOMEscan panel) (Homo sapiens, UniProt P22607); settings: FGFR3; Published KINOMEscan; ref original PKIS2 published data; cited from earlier work
Sequence of kinases (KINOMEscan panel) (Homo sapiens, UniProt P22607) (P22607 23-806): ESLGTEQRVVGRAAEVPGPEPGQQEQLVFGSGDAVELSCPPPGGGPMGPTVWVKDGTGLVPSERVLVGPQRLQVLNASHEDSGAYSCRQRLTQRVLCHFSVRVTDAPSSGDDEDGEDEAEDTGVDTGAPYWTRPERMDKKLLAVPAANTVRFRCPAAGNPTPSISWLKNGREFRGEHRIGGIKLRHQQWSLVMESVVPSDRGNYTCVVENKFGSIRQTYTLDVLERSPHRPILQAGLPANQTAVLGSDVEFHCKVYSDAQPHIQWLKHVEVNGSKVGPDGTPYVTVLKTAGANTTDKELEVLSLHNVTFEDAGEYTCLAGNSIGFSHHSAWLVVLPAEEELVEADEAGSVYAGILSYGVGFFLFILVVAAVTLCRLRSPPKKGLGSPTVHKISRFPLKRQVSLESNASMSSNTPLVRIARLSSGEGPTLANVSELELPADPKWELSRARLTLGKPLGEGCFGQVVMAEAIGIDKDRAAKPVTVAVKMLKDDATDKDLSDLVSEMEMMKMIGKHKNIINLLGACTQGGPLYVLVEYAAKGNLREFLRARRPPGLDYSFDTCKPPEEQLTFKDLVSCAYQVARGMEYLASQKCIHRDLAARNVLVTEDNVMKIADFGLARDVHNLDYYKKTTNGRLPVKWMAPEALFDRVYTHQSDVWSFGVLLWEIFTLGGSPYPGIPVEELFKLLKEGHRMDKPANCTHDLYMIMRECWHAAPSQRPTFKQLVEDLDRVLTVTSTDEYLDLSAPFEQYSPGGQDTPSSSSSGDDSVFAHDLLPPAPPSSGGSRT

Cc1cccc(-c2nc(Nc3ccncc3)c3ccccc3n2)n1 [NK215]
KINOMEscan RIPK1 [1]: 4 | KINOMEscan GRK3 [2]: 0 | KINOMEscan TAOK3 [3]: 0 | KINOMEscan FGFR3 [4]: 2
